The record followed here is ChEMBL document CHEMBL1649287, “Postantibiotic effect of ceftaroline against gram-positive organisms” (2009).

Structures are written as SMILES.

The test system of test [1] is Streptococcus pneumoniae. Description: Antimicrobial activity against Streptococcus pneumoniae ATCC 6306 assessed as post antibiotic effect at 10 times MIC after 2 hr by plate counting method. It is filed as functional.
Test [2] deals with Staphylococcus aureus. In words: Antimicrobial activity against Staphylococcus aureus ATCC 29213 assessed as post antibiotic effect at 10 times MIC after 2 hr by plate counting method. The class given is functional.

For `CO/N=C(\C(=O)N[C@@H]1C(=O)N2C(C(=O)O)=C(CSc3nc(=O)c(O)nn3C)CS[C@H]12)c1csc(N)n1` [CEFTRIAXONE], the PAE is 0.7 h in test [1] and 2.3 h in test [2].
